Assay results published in US6479460B1, “Synthetic peptides and pseudopeptides having osteogenic activity and pharmaceutical compositions containing the same” (Yissum Research Development Company of the Hebrew …, priority 1996, dated 2002).
Primed or numbered codes have the meaning given here. Where no end group is shown, it is not given here. [ ]: non-standard residue; d: D form. The star is where a group is joined. ol = C-terminal alcohol (reduced C-terminus); Desaminotyrosyl = O=C(CCc1ccc(O)cc1)*; Hydrocinnamoyl = O=C(CCc1ccccc1)*; NMeF = CN[C@@H](Cc1ccccc1)C(=O)O; ol″ = C-terminal alcohol; Propionyl = CCC(=O)*; GABA = NCCCC(=O)O; βAla = NCCC(=O)O; Sar = CNCC(=O)O

Experiments:
[1] = test system: osteoblastic MC3T3 E1 cells; assay: Proliferation assay, osteoblastic MC3T3 E1 cells; format: cell-based; conditions: for Relative in vitro potency (95% confidence limit) MC3T3 E1 cells: analog concentration 10^−13M, mean cell number relative to positive control OGP(1-14) = 1.00
From the text: (§1) Some of the analogs were subjected to a dose response analysis.

[2] = test system: fibroblastic NIH 3T3 cells; assay: Proliferation assay, fibroblastic NIH 3T3 cells; format: cell-based; conditions: for Relative in vitro potency (95% confidence limit) NIH 3T3 cells: analog concentration 10^−11M, mean cell number relative to positive control OGP(1-14) = 1.00
From the text: as §1

Row | Substance | Relative in vitro potency (95% confidence limit) MC3T3 E1 cells [1] | Relative in vitro potency (95% confidence limit) NIH 3T3 cells [2] | activity compared to OGP(1-14) ([1]; MC3T3 E1 cells) | activity compared to OGP(1-14) ([2]; NIH3T3 cells)
1 | [Ala^14]OGP(11-14) (GFGA) | 0.17 | 0.10 |  | 
2 | c(δ-Ala-Tyr-Gly-Phe-Gly-Gly) | 0.14 | 0.18 |  | 
3 | desamino[Tyr^10,Ala^13]OGP(10-14) ([Desaminotyrosyl]GFAG) | 0.27 | 0.15 |  | 
4 | desamino[Tyr^10,Ala^12]OGP(10-14) [desamino[Tyr^10,Ala^12]OGP(10-14) (SEQ ID NO: 21)] ([Desaminotyrosyl]GAGG) | 0.21 | 0.16 |  | 
5 | desamino Tyr-CH2-Gly-Phe-Gly-Gly ([Desaminotyrosyl]GFGG; also: reduced amide bond Tyr-CH2-Gly) [desamino[Tyr^10ψ(CH2NH)Gly^11]OGP(10-14)] | 0.81 | 0.79 |  | 
6 | desamino[Tyr^10,Sar^11]OGP(10-14) [desamino[Tyr^10,Sar^11]OGP(10-14) (SEQ ID NO: 34)] | 0.16 | 0.14) |  | 
7 | desamino[Tyr^10]OGP(10-14)—N(Me)2 ([Desaminotyrosyl]GFGG-{N(Me)2}) | 0.12 | 0.16 |  | 
8 | OGP(11-14)-ol (GFGG-{ol″}) | 0.24 | 0.38 |  | 
9 | desamino[Tyr^10,D-Ala^12]OGP(10-14) | 0.30 | 0.02 |  | 
10 | desamino[Tyr^10]OGP(10-13)—NH(CH2)2NH2 ([Desaminotyrosyl]GFG-{NH(CH2)2NH2}) | 0.18 | 0.17 |  | 
11 | [Ala^13]OGP(11-14) (GFAG) | 0.22 | 0.10 |  | 
12 | Nα-Ac—OGP(11-14) (Ac-GFGG) | 0.21 | 0.22 |  | 
13 | desamino[Tyr^10]OGP(10-13)—NHEt ([Desaminotyrosyl]GFG-NHEt; SMILES CCNC(=O)CNC(=O)[C@H](Cc1ccccc1)NC(=O)CNC(=O)CCc1ccc(O)cc1) | 0.19 | 0.20 |  | 
14 | desamino[Tyr^10,D-Ala^14]OGP(10-14) | 0.41 | 0.32 |  | 
15 | [Phe^10]OGP(10-14) (FGFGG) | 0.41 | 0.32 |  | 
16 | desamino[Tyr^10,Ala^12]OGP(10-14) [desamino[Tyr^10,Ala^12]OGP(10-14) (SEQ ID NO: 20)] | 0.41 | 0.43 |  | 
17 | desamino Tyr-NH-CH2-CH2-Phe-Gly-Gly ([Desaminotyrosyl]GFGG; also: Gly2-Phe3 bond reduced, ψ(CH2NH)) | 0.61 | 0.67 |  | 
18 | [D-Ala^13]OGP(10-14) | 0.14 | 0.26 |  | 
19 | desamino[Ala^10]OGP(10-14) ([Propionyl]GFGG) | 0.28 | 0.09 |  | 
20 | des[Gly^11]OGP(10-14) | 0.21 | 0.17 |  | 
21 | desamino Tyr-Gly-NH-CH(CH2C6H5)-CH2-Gly-Gly ([Desaminotyrosyl]GFGG; also: reduced amide bond Phe-Gly (NH-CH(CH2C6H5)-CH2-NH)) | 0.70 | 0.88 |  | 
22 | c(Tyr-Cly-Phe-Gly) (YGFG; cyclic) | 0.35 | 0.43 |  | 
23 | desamino[Tyr^10]OGP(10-14)—OMe ([Desaminotyrosyl]GFGG-OMe; SMILES COC(=O)CNC(=O)CNC(=O)[C@H](Cc1ccccc1)NC(=O)CNC(=O)CCc1ccc(O)cc1) | 0.51 | 0.36 | higher than 50% | less than 50%

Row | Substance | Relative in vitro potency (95% confidence limit) MC3T3 E1 cells [1] | Relative in vitro potency (95% confidence limit) NIH 3T3 cells [2] | activity compared to OGP(1-14) ([1]; MC3T3 E1 cells) | activity compared to OGP(1-14) ([2]; NIH3T3 cells)
24 | desamino Tyr-Gly-N(CH3)-CH(CH2C6H5)-C(O)-Gly-Gly ([Desaminotyrosyl]G[NMeF]GG) [desamino[Tyr^10,N(Me)-Phe^12]OGP(10-14)] | 0.52 | 0.67 |  | 
25 | c(δ-Ala-Tyr-Gly-Phe-Gly-Asp)-OH | 0.20 | 0.11 |  | 
26 | desamino[Tyr^10]OGP(10-14)—NH2 ([Desaminotyrosyl]GFGG-NH2; SMILES NC(=O)CNC(=O)CNC(=O)[C@H](Cc1ccccc1)NC(=O)CNC(=O)CCc1ccc(O)cc1) | 0.20 | 0.16 |  | 
27 | [Ala^10]OGP(10-14) (AGFGG) | 0.29 | 0.17 |  | 
28 | desamino[Tyr^10,D-Ala^13]OGP(10-14) | 0.28 | 0.23 |  | 
29 | [β-Ala^11]OGP(10-14) (Y[βAla]FGG) | 0.29 | 0.17 |  | 
30 | desamino[Tyr^10,Sar^13]OGP(10-14) ([Desaminotyrosyl]GF[Sar]G) | 0.15 | 0.11 |  | 
31 | desamino[Tyr^10,Ala^14]OGP(10-14) ([Desaminotyrosyl]GFGA) | 0.19 | 0.16 |  | 
32 | desamino Tyr-Gly-Phe-NH-CH2-CH2-Gly (YGFGG; not fully specified; desamino Tyr10; reduced CH2NH bond Gly13-Gly14) | 0.78 | 0.80 |  | 
33 | desamino Tyr-Gly-Phe-NH-CH2-CH2-CH2-CH2-C(O)-OH | 0.78 | 0.188 |  | 
34 | [Ala^11]OGP(10-14) (YAFGG) | 0.18 | 0.31 |  | 
35 | desamino[Tyr^10]OGP(10-14)—ol ([Desaminotyrosyl]GFGG-ol) | 0.24 | 0.28 |  | 
36 | c(Gly-Tyr-Gly-Phe-Gly-Asp)-OH (GYGFGD-OH; lactam (positions not given here); also: cyclic, closure site not given here) | 0.15 | 0.16 |  | 
37 | c(Gly-Tyr-Gly-Phe-Gly-Gly) (GYGFGG; cyclic) | 0.26 | 0.20 |  | 
38 | c(Tyr-Gly-Phe-Gly-Asp)-OH (YGFGD-OH; lactam (positions not given here); also: cyclic, closure site not given here) | 0.14 | 0.11 |  | 
39 | c(β-Ala-Tyr-Gly-Phe-Gly-Gly) (cyclo([βAla]YGFGG); SMILES O=C1CNC(=O)CNC(=O)[C@H](Cc2ccccc2)NC(=O)CNC(=O)[C@H](Cc2ccc(O)cc2)NC(=O)CCN1) | 0.36 | 0.37 |  | 
40 | desamino[Tyr^10,Sar^11]OGP(10-14) [desamino[Tyr^10,Sar^11]OGP(10-14) (SEQ ID NO: 31)] ([Desaminotyrosyl][Sar]FGG) | 0.31 | 0.39 |  | 
41 | c(γ-Abu-Tyr-Gly-Phe-Gly-Gly) (cyclo([GABA]YGFGG); SMILES O=C1CNC(=O)CNC(=O)[C@H](Cc2ccccc2)NC(=O)CNC(=O)[C@H](Cc2ccc(O)cc2)NC(=O)CCCN1) | 0.20 | 0.22 |  | 
42 | desamino[Phe^10]OGP(10-14) ([Hydrocinnamoyl]GFGG) | 0.35 | 0.48 |  | 
43 | [D-Ala^10]OGP(10-14) | 0.12 | 0.16 |  | 
44 | (desamino[Phe^10]2OGP(10-14) | 0.18 | 0.24 |  | 
45 | desamino[Tyr^10,D-Ala^11]OGP(10-14) | 0.21 | 0.19 |  | 
46 | desamino[Tyr^10]OGP(10-14)—NHMe ([Desaminotyrosyl]GFGG-NHMe; SMILES CNC(=O)CNC(=O)CNC(=O)[C@H](Cc1ccccc1)NC(=O)CNC(=O)CCc1ccc(O)cc1) | 0.18 | 0.16 |  | 
